Laboratory results: patent publication US7049303B2, “Inhibition of viruses” (Medical Research Council, priority 2001, dated 2006)
Like-named read-outs stand apart in the source and are kept apart here.

Assays:
[1] = test system: human T-lymphocytes (CEM/O cells); experiment: Toxicity: inhibition of proliferation of human T-lymphocytes (CEM/O cells); format: cell-based; details: read-out: IC50 (50% inhibitory concentration), proliferation of CEM/O cells
Procedure: Following synthesis, the various compounds were tested in vitro for toxicity, by measuring the IC50 (i.e. the concentration which caused 50% inhibition) in respect of the inhibitory effects of the compounds on the proliferation of human T-lymphocytes (CEM/O cells).

[2] = test system: HIV-1(IIIB); experiment: Serial passage of HIV-1 infected CEM cell cultures with sub-toxic drug, cytopathic effect (giant cell formation); format: cell-based; details: for percentage of cytopathic effect (giant cell formation), passage number 1: passage 1; for percentage of cytopathic effect (giant cell formation), passage number 1 / percentage of cytopathic effect (giant cell formation), passage number 2 / percentage of cytopathic effect (giant cell formation), passage number 3 / percentage of cytopathic effect (giant cell formation), passage number 4 / percentage of cytopathic effect (giant cell formation), passage number 5 / percentage of cytopathic effect (giant cell formation), passage number 6 / percentage of cytopathic effect (giant cell formation), passage number 7: subcultivation every 5 days; for percentage of cytopathic effect (giant cell formation), passage number 2: passage 2; for percentage of cytopathic effect (giant cell formation), passage number 3: passage 3; for percentage of cytopathic effect (giant cell formation), passage number 4: passage 4; for percentage of cytopathic effect (giant cell formation), passage number 5: passage 5; for percentage of cytopathic effect (giant cell formation), passage number 6: passage 6; for percentage of cytopathic effect (giant cell formation), passage number 7: passage 7; for antiviral activity (inhibition of HIV replication) in words: HIV-1 infected CEM cells, sub-toxic concentrations, up to 7 passages
Procedure: HIV-1 infected CEM cells were subcultured every 4–5 days in the presence of sub-toxic concentrations (in the range of 10–20% of their respective IC50 value) of the compounds under test. At each sub-culture, cell-free supernatant (10–20 μl) was transferred to fresh 1 ml cell cultures. At regular intervals the cultures were inspected microscopically to assess the extent of any cytopathic effect (giant cell formation). As an alternative, it is also possible to perform an immunoassay to quantify viral p24 production.
The preliminary results for up to 7 passages are shown below in Table 3.

O=C1NC2=NOCCC2=CN1[C@H]1C[C@H](O)[C@@H](CO)O1 [JA21, 6-(2-deoxy-β-D-ribofuranosyl)-3,4-dihydro-8H-pyrimido[4,5-c][1,2] oxazin-7-one, reference compound]
IC50 ([1]; T-lymphocyte): 690 ± 14 µM | percentage of cytopathic effect (giant cell formation), passage number 1 ([2]; 400 μM): 100% | percentage of cytopathic effect (giant cell formation), passage number 2 ([2]; 400 μM): 100% | percentage of cytopathic effect (giant cell formation), passage number 3 ([2]; 400 μM): 25% | percentage of cytopathic effect (giant cell formation), passage number 4 ([2]; 400 μM): 50% | percentage of cytopathic effect (giant cell formation), passage number 5 ([2]; 400 μM): 37% | percentage of cytopathic effect (giant cell formation), passage number 6 ([2]; 400 μM): 12% | percentage of cytopathic effect (giant cell formation), passage number 7 ([2]; 400 μM): 6%

O=C1NC2=NOCCC2=CN1[C@@H]1O[C@H](CO)[C@@H](O)[C@H]1O [JA22, 6-(β-D-ribofuranosyl)-3,4-dihydro-8H-pyrimido[4,5-c][1,2] oxazin-7-one]
IC50 ([1]; T-lymphocyte): 698 ± 11 µM | percentage of cytopathic effect (giant cell formation), passage number 1 ([2]; 400 μM): 100% | percentage of cytopathic effect (giant cell formation), passage number 2 ([2]; 400 μM): 100% | percentage of cytopathic effect (giant cell formation), passage number 3 ([2]; 400 μM): 100% | percentage of cytopathic effect (giant cell formation), passage number 4 ([2]; 400 μM): 100% | percentage of cytopathic effect (giant cell formation), passage number 5 ([2]; 400 μM): 100% | percentage of cytopathic effect (giant cell formation), passage number 6 ([2]; 400 μM): 100% | percentage of cytopathic effect (giant cell formation), passage number 7 ([2]; 400 μM): 100%

CNc1nc(N)nc2c1ncn2[C@@H]1O[C@H](CO)[C@@H](O)[C@H]1O [JA23, 2-amino-N^6-methyladenosine]
IC50 ([1]; T-lymphocyte): 622 ± 8 µM | percentage of cytopathic effect (giant cell formation), passage number 1 ([2]; 400 μM): 100% | percentage of cytopathic effect (giant cell formation), passage number 2 ([2]; 400 μM): 100% | percentage of cytopathic effect (giant cell formation), passage number 3 ([2]; 400 μM): 12% | percentage of cytopathic effect (giant cell formation), passage number 4 ([2]; 400 μM): 25% | percentage of cytopathic effect (giant cell formation), passage number 5 ([2]; 400 μM): 3% | percentage of cytopathic effect (giant cell formation), passage number 6 ([2]; 400 μM): 0% | percentage of cytopathic effect (giant cell formation), passage number 7 ([2]; 400 μM): 0% | antiviral activity (inhibition of HIV replication) in words [2]: moderately effective

NNc1nc(N)nc2c1ncn2[C@@H]1O[C@H](CO)[C@@H](O)[C@H]1O [JA24, N^6-amino-9-β-D-ribofuranosyl-2,6-diaminopurine]
IC50 [1]: 62 ± 6 µM | percentage of cytopathic effect (giant cell formation), passage number 1 ([2]; 4 μM): 100% | percentage of cytopathic effect (giant cell formation), passage number 2 ([2]; 4 μM): 100% | percentage of cytopathic effect (giant cell formation), passage number 3 ([2]; 4 μM): 19% | percentage of cytopathic effect (giant cell formation), passage number 4 ([2]; 4 μM): 100% | percentage of cytopathic effect (giant cell formation), passage number 5 ([2]; 4 μM): 100% | percentage of cytopathic effect (giant cell formation), passage number 6 ([2]; 4 μM): 100% | percentage of cytopathic effect (giant cell formation), passage number 7 ([2]; 4 μM): 12% | percentage of cytopathic effect (giant cell formation), passage number 1 ([2]; 10 μM): 100% | percentage of cytopathic effect (giant cell formation), passage number 2 ([2]; 10 μM): 100% | percentage of cytopathic effect (giant cell formation), passage number 3 ([2]; 10 μM): 25% | percentage of cytopathic effect (giant cell formation), passage number 4 ([2]; 10 μM): 100% | percentage of cytopathic effect (giant cell formation), passage number 5 ([2]; 10 μM): 100% | percentage of cytopathic effect (giant cell formation), passage number 6 ([2]; 10 μM): 100% | percentage of cytopathic effect (giant cell formation), passage number 7 ([2]; 10 μM): 25%

NNc1ncnc2c1ncn2[C@@H]1O[C@H](CO)[C@@H](O)[C@H]1O [JA25, N^6-aminoadenosine]
IC50 ([1]; T-lymphocyte): 12 ± 3 µM | percentage of cytopathic effect (giant cell formation), passage number 1 ([2]; 0.8 μM): 100% | percentage of cytopathic effect (giant cell formation), passage number 2 ([2]; 0.8 μM): 100% | percentage of cytopathic effect (giant cell formation), passage number 3 ([2]; 0.8 μM): 87% | percentage of cytopathic effect (giant cell formation), passage number 4 ([2]; 0.8 μM): 100% | percentage of cytopathic effect (giant cell formation), passage number 5 ([2]; 0.8 μM): 100% | percentage of cytopathic effect (giant cell formation), passage number 6 ([2]; 0.8 μM): 100% | percentage of cytopathic effect (giant cell formation), passage number 7 ([2]; 0.8 μM): 100% | percentage of cytopathic effect (giant cell formation), passage number 1 ([2]; 2 μM): 100% | percentage of cytopathic effect (giant cell formation), passage number 2 ([2]; 2 μM): 100% | percentage of cytopathic effect (giant cell formation), passage number 3 ([2]; 2 μM): 100% | percentage of cytopathic effect (giant cell formation), passage number 4 ([2]; 2 μM): 100% | percentage of cytopathic effect (giant cell formation), passage number 5 ([2]; 2 μM): 100% | percentage of cytopathic effect (giant cell formation), passage number 6 ([2]; 2 μM): 100% | percentage of cytopathic effect (giant cell formation), passage number 7 ([2]; 2 μM): 100%

CONc1ncnc2c1ncn2[C@@H]1O[C@H](CO)[C@@H](O)[C@H]1O [JA26, N^6-methoxyadenosine]
IC50 ([1]; T-lymphocyte): 44 ± 2 µM | percentage of cytopathic effect (giant cell formation), passage number 1 ([2]; 4 μM): 100% | percentage of cytopathic effect (giant cell formation), passage number 2 ([2]; 4 μM): 100% | percentage of cytopathic effect (giant cell formation), passage number 3 ([2]; 4 μM): 25% | percentage of cytopathic effect (giant cell formation), passage number 4 ([2]; 4 μM): 100% | percentage of cytopathic effect (giant cell formation), passage number 5 ([2]; 4 μM): 100% | percentage of cytopathic effect (giant cell formation), passage number 6 ([2]; 4 μM): 12% | percentage of cytopathic effect (giant cell formation), passage number 7 ([2]; 4 μM): 3% | percentage of cytopathic effect (giant cell formation), passage number 1 ([2]; 10 μM): 100% | percentage of cytopathic effect (giant cell formation), passage number 2 ([2]; 10 μM): 100% | percentage of cytopathic effect (giant cell formation), passage number 3 ([2]; 10 μM): 25% | percentage of cytopathic effect (giant cell formation), passage number 4 ([2]; 10 μM): 100% | percentage of cytopathic effect (giant cell formation), passage number 5 ([2]; 10 μM): 100% | percentage of cytopathic effect (giant cell formation), passage number 6 ([2]; 10 μM): 12% | percentage of cytopathic effect (giant cell formation), passage number 7 ([2]; 10 μM): 3%

CN(N)c1ncnc2c1ncn2[C@@H]1O[C@H](CO)[C@@H](O)[C@H]1O [JA27, N^6-amino-N^6-methyladenosine]
IC50 ([1]; T-lymphocyte): 17 ± 2 µM | percentage of cytopathic effect (giant cell formation), passage number 1 ([2]; 4 μM): 100% | percentage of cytopathic effect (giant cell formation), passage number 2 ([2]; 4 μM): 100% | percentage of cytopathic effect (giant cell formation), passage number 3 ([2]; 4 μM): 6% | percentage of cytopathic effect (giant cell formation), passage number 4 ([2]; 4 μM): 25% | percentage of cytopathic effect (giant cell formation), passage number 5 ([2]; 4 μM): 25% | percentage of cytopathic effect (giant cell formation), passage number 6 ([2]; 4 μM): 0% | percentage of cytopathic effect (giant cell formation), passage number 7 ([2]; 4 μM): 0% | antiviral activity (inhibition of HIV replication) in words [2]: moderately effective

OC[C@H]1O[C@@H](n2cnc3c(NO)ncnc32)[C@H](O)[C@@H]1O [JA28, N^6hydroxyadenosine]
IC50 ([1]; T-lymphocyte): 156 ± 15 µM | percentage of cytopathic effect (giant cell formation), passage number 1 ([2]; 20 μM): 100% | percentage of cytopathic effect (giant cell formation), passage number 2 ([2]; 20 μM): 100% | percentage of cytopathic effect (giant cell formation), passage number 3 ([2]; 20 μM): 19% | percentage of cytopathic effect (giant cell formation), passage number 4 ([2]; 20 μM): 100% | percentage of cytopathic effect (giant cell formation), passage number 5 ([2]; 20 μM): 100% | percentage of cytopathic effect (giant cell formation), passage number 6 ([2]; 20 μM): 100% | percentage of cytopathic effect (giant cell formation), passage number 7 ([2]; 20 μM): 100% | percentage of cytopathic effect (giant cell formation), passage number 1 ([2]; 40 μM): 100% | percentage of cytopathic effect (giant cell formation), passage number 2 ([2]; 40 μM): 100% | percentage of cytopathic effect (giant cell formation), passage number 3 ([2]; 40 μM): 50% | percentage of cytopathic effect (giant cell formation), passage number 4 ([2]; 40 μM): 100% | percentage of cytopathic effect (giant cell formation), passage number 5 ([2]; 40 μM): 100% | percentage of cytopathic effect (giant cell formation), passage number 6 ([2]; 40 μM): 75% | percentage of cytopathic effect (giant cell formation), passage number 7 ([2]; 40 μM): 6%

O=c1nc(NO)ccn1[C@@H]1O[C@H](CO)[C@@H](O)[C@H]1O [JA29, N^4-hydroxycytidine, reference compound]
IC50 ([1]; T-lymphocyte): 16 ± 1 µM | percentage of cytopathic effect (giant cell formation), passage number 1 ([2]; 0.8 μM): 100% | percentage of cytopathic effect (giant cell formation), passage number 2 ([2]; 0.8 μM): 100% | percentage of cytopathic effect (giant cell formation), passage number 3 ([2]; 0.8 μM): 12% | percentage of cytopathic effect (giant cell formation), passage number 4 ([2]; 0.8 μM): 100% | percentage of cytopathic effect (giant cell formation), passage number 5 ([2]; 0.8 μM): 100% | percentage of cytopathic effect (giant cell formation), passage number 6 ([2]; 0.8 μM): 100% | percentage of cytopathic effect (giant cell formation), passage number 7 ([2]; 0.8 μM): 100% | percentage of cytopathic effect (giant cell formation), passage number 1 ([2]; 2 μM): 100% | percentage of cytopathic effect (giant cell formation), passage number 2 ([2]; 2 μM): 100% | percentage of cytopathic effect (giant cell formation), passage number 3 ([2]; 2 μM): 25% | percentage of cytopathic effect (giant cell formation), passage number 4 ([2]; 2 μM): 100% | percentage of cytopathic effect (giant cell formation), passage number 5 ([2]; 2 μM): 100% | percentage of cytopathic effect (giant cell formation), passage number 6 ([2]; 2 μM): 100% | percentage of cytopathic effect (giant cell formation), passage number 7 ([2]; 2 μM): 100% | antiviral activity (inhibition of HIV replication) in words [2]: does not demonstrate any antiviral activity

Nc1nc(NO)c2ncn([C@@H]3O[C@H](CO)[C@@H](O)[C@H]3O)c2n1 [JA30, 2-amino-N^6-hydroxyadenosine]
IC50 ([1]; T-lymphocyte): 78 ± 3 µM | percentage of cytopathic effect (giant cell formation), passage number 1 ([2]; 10 μM): 100% | percentage of cytopathic effect (giant cell formation), passage number 2 ([2]; 10 μM): 100% | percentage of cytopathic effect (giant cell formation), passage number 3 ([2]; 10 μM): 25% | percentage of cytopathic effect (giant cell formation), passage number 4 ([2]; 10 μM): 100% | percentage of cytopathic effect (giant cell formation), passage number 5 ([2]; 10 μM): 100% | percentage of cytopathic effect (giant cell formation), passage number 6 ([2]; 10 μM): 100% | percentage of cytopathic effect (giant cell formation), passage number 7 ([2]; 10 μM): 50%
